According to patent US10322112B2, “Compound combinations for attenuation of bacterial virulence” (priority 2016, dated 2019):

What was measured:
QscR [1] = target: T1, QscR (Pseudomonas aeruginosa, UniProt G3XD77); assay type: cell-based; set-up: expressed in transfected cells; host or cells: E. coli JLD271; conditions: compounds at 100 mm against 15 nm OdDHL; E. coli reporter strain JLD271/pJN105Q/pSC11-Q; untreated culture = 100%; error ±10%
From the text: (§1) Construction of pSC11-Q: A 348 bp fragment spanning the upstream region of PA1897 (¢304 to +43 relative to the PA1897 translationalstart codon) was amplified from plasmid pJL101*by using primers 5′-GAATAT GGATCC TCTCTC CGCAGA TACCTG-3′ (BamHI site underlined) SEQ ID NO:5 and 5′-GCTATT GAATTC TGAAGA TGAATA GCGCCAC-3′ (EcoRI site underlined) SEQ ID NO:6. The PCR-generated fragment was digested with EcoRI and BamHI and subsequently ligated into EcoRI/BamHI-digested pPROBE-KT to generate pPROBE-KQ2. […] CGCC-3′ (BamHI site underlined) SEQ ID NO:8. The PCR-generated fragment was digested with SalI and BamHI and subsequently ligated into SalI/BamHI-digested pSC11 to generate pSC11-Q.
(§2) E. coli reporter gene assays: Primary assays for RhlR, LasR, and QscR activity in E. coli JLD271 reporter (beta-galactosidase) strains were performed as reported by Welsh et al. 2015, with the following modifications:
(§3) For all primary and dose-response antagonism assays, the concentration of native ligand utilized was approximately equal to its EC50 value in each bacterial reporter strain. For RhlR, LasR, and QscR primary antagonism assays, synthetic ligand (100 mm) was screened against BHL (10 mm), OdDHL (2 nm), and OdDHL (15 nm), respectively. For RhlR, LasR, and QscR primary agonism assays, synthetic compound (100 mm) was screened alongside and compared to the natural ligand (900 mm BHL or 100 mm OdDHL) for the receptor. As part of the beta-galactosidase assay protocol, plates to which CPRG substrate had been added were incubated at either 25° C. (LasR assay) or 30° C. (RhlR and QscR assays) until positive control wells developed a deep red color (10 min for LasR, 30 min for RhlR, and 60 min for QscR). Dose-response reporter gene assays were performed according to these protocols by using varying concentrations of compound.

LasR [2] = target: T2, LasR (Pseudomonas aeruginosa, UniProt P25084); test: E. coli reporter gene primary antagonism assay, LasR; assay type: cell-based; conditions: compounds at 100 mm against 2 nm OdDHL; E. coli beta-galactosidase reporter strain JLD271/pJN105L/pSC11; untreated culture = 100%; negative values indicate receptor agonism; error ±10%
T2 construct: expressed in transfected cells; host or cells: E. coli JLD271
T2 sequence (P25084 whole entry): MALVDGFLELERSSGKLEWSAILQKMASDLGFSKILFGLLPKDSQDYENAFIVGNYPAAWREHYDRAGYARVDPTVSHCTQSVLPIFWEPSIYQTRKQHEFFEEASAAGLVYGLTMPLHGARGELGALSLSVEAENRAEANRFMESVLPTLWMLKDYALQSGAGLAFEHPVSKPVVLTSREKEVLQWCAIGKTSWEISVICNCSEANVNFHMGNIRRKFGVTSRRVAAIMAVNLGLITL
Procedure: (§4) Percent agonism of a given non-native inducer in a given bacterium and QS system receptor is measured with resepct to the maximum level of agonism (activation) by the native ligand of that receptor in the given bacterium. Percent antagonism is measured in competitive assays. The QS system of interest is activated to 100% with added or endogenous native ligand and the % antagonism of the non-native inducer is assessed with respect to 100% activation by the native inducer. The native ligand which induces LasR is OdDHL, which induces RhlR is BHL and which induces PqsR is PQS. As described herein and in cited references, assays for assessment of % agonism or % atangonism may be performed in E. coli systems (heterologous) or in the bacterium of interest, e.g., Pseudomonas. Dependent upon the assay system employed native ligand may be endogenously present or it may be exogenously supplied to the assay system. […] In antagonism assays using the native strains with functional QS systems, e.g., those of P. aeruginosa, endogenous native ligand is made in the system, so no native ligand is added. In native strains having one or more non-functional QS systems (mutant strains), e.g., P. aeruginosa mutants with non-functional QS systems, native ligand is added at about 10-100× the EC50 of the native ligand. In the agonism assay, native ligand is added as a control. Details of the assays are provided herein in Example 9 and in references cited in Example 9.

RhlR [3] = target: T3, RhlR (Pseudomonas aeruginosa, UniProt P54292); test: E. coli reporter gene antagonism assay, RhlR; assay type: cell-based; conditions: compounds at 100 mm in the presence of 10 mm BHL; untreated culture = 100%; error ±10%; selected data reproduced from Welsh et al. 2015
T3 construct: expressed in transfected cells; host or cells: E. coli JLD271
T3 sequence (P54292 whole entry): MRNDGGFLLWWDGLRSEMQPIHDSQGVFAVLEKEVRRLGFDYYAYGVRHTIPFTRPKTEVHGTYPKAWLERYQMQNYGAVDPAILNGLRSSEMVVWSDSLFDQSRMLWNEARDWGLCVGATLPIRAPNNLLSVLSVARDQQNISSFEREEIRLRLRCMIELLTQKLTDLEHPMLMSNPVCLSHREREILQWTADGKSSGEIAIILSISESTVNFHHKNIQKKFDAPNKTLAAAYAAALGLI
Procedure: as §4

QscR [4] = target: T1, QscR; conditions: compounds at 100 mm; E. coli reporter strain JLD271/pJN105Q/pSC11-Q; 100 mm OdDHL = 100%; error ±10%
From the text: as §1, §2, §3

LasR [5] = target: T2, LasR; test: E. coli reporter gene primary agonism assay, LasR; assay type: cell-based; conditions: compounds at 100 mm; E. coli reporter strain JLD271/pJN105L/pSC11; 100 mm OdDHL = 100%; error ±10%
Procedure: as §4

RhlR [6] = target: T3, RhlR; test: E. coli reporter gene primary agonism assay, RhlR; assay type: cell-based; conditions: compounds at 100 mm; 900 mm BHL = 100%; error ±10%; selected data reproduced from Welsh et al., 2015
Procedure: as §4

T1 sequence (G3XD77 entry or part of it): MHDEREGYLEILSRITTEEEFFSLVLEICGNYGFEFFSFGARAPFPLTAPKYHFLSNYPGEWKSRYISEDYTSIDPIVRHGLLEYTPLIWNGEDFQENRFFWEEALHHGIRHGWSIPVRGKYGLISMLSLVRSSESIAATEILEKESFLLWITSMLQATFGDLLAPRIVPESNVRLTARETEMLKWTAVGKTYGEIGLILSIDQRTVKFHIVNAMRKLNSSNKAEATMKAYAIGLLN

Row | SMILES | Inhibition [%] QsCR (QscR [1]) [%] | Inhibition [%] LasR (LasR [2]) [%] | Inhibition [%] RhlR (RhlR [3]) [%] | Activation [%] QscR (QscR [4]) [%] | Activation [%] LasR (LasR [5]) [%] | Activation [%] RhlR (RhlR [6]) [%]
1 | O=C(Cc1ccc2ccccc2c1)N[C@H]1CCOC1=O [E12] | 60 | 81 | 77 | – | – | –
2 | CSc1ccc(CC(=O)N[C@H]2CCOC2=O)cc1 [E6] | 24 | 85 | 78 | – | – | –
3 | O=C(Cc1ccccc1F)N[C@H]1CCOC1=O [C4] | – | – | – | 0 | −4 | 66
4 | O=C(Cc1cccc(I)c1)N[C@H]1CCOC1=O [C11] | – | – | – | 34 | 56 | 63
5 | O=C(COc1ccc(C(F)(F)F)cc1)N[C@H]1CCOC1=O [E23] | 22 | −49 | 64 | – | – | –
6 | O=C(Cc1ccc(SC(F)(F)F)cc1)N[C@H]1CCOC1=O [E8] | 40 | 23 | 65 | – | – | –
7 | O=C(Cc1c(F)c(F)c(F)c(F)c1F)N[C@H]1CCOC1=O [C16] | 74 | 76 | 66 | – | – | –
8 | O=C(Cc1ccc(Cl)c(Cl)c1)N[C@H]1CCOC1=O [E11] | 15 | 28 | 62 | – | – | –
9 | O=C(CCc1cccc(Br)c1)N[C@H]1CCOC1=O [E31] | – | – | – | 58 | 71 | 65
10 | O=C(COc1ccc(Br)cc1)N[C@H]1CCOC1=O [E21] | 20 | 31 | 66 | – | – | –
11 | Cc1cccc(CC(=O)N[C@H]2CCOC2=O)c1 [E1] | – | – | – | 29 | 21 | 69
12 | O=C(Cc1ccc(Br)cc1)N[C@@H]1CCOC1=O [B4] | 37 | 15 | 66 | – | – | –
13 | N#Cc1cccc(CC(=O)N[C@H]2CCOC2=O)c1 [E5] | – | – | – | 34 | 62 | 67
14 | Cc1ccc(OCC(=O)N[C@H]2CCOC2=O)cc1 [E15] | 33 | 84 | 75 | – | – | –
15 | O=C(CCCC1CCCCC1)N[C@H]1CCOC1=O [S6] | 34 | 56 | 69 | – | – | –
16 | O=C(Cc1cccc(Cl)c1)N[C@H]1CCOC1=O [C6] | – | – | – | 30 | 30 | 82
17 | O=C(Cc1cccc(Br)c1)N[C@H]1CCOC1=O [C8] | – | – | – | 33 | 44 | 80

Row | SMILES | Inhibition [%] QsCR (QscR [1]) [%] | Inhibition [%] LasR (LasR [2]) [%] | Inhibition [%] RhlR (RhlR [3]) [%] | Activation [%] QscR (QscR [4]) [%] | Activation [%] LasR (LasR [5]) [%] | Activation [%] RhlR (RhlR [6]) [%]
18 | CSc1ccc(CCC(=O)N[C@H]2CCOC2=O)cc1 [E34] | −190 | −52 | 62 | – | – | –
19 | O=C(Cc1ccc([N+](=O)[O-])cc1)N[C@H]1CCOC1=O [C13] | 14 | 91 | 60 | – | – | –
20 | O=C(Cc1ccccc1I)N[C@H]1CCOC1=O [C12] | – | – | – | 5 | −4 | 70
21 | O=C(Cc1cccc(F)c1)N[C@H]1CCOC1=O [C3] | – | – | – | 13 | −2 | 79
22 | COc1cccc(CC(=O)N[C@H]2CCOC2=O)c1 [E2] | – | – | – | 26 | 23 | 86
23 | O=C(Cc1ccc(F)cc1)N[C@H]1CCOC1=O [C2] | – | – | – | 10 | 12 | 71
24 | O=C(CCc1ccc(Cl)cc1)N[C@H]1CCOC1=O [E30] | – | – | – | 79 | 53 | 64
25 | O=C(CC1CCCC1)N[C@H]1CCOC1=O [B12] | – | – | – | 12 | −10 | 79
26 | CSc1cccc(CC(=O)N[C@H]2CCOC2=O)c1 [E7] | – | – | – | 24 | 32 | 70
27 | O=C(Cc1ccccc1)N[C@H]1CCOC1=O [C1] | – | – | – | 3 | −3 | 84
28 | COc1ccc(OCC(=O)N[C@H]2CCOC2=O)cc1 [E17] | 36 | 83 | 66 | – | – | –
29 | C=CCCC(=O)N[C@H]1CCOC1=O [D8] | – | – | – | 13 | 26 | 81
30 | O=C(Cc1ccc(C(F)(F)F)cc1)N[C@H]1CCOC1=O [C20] | 26 | 93 | 86 | – | – | –
31 | O=C(CCc1ccc([N+](=O)[O-])cc1)N[C@H]1CCOC1=O [E37] | – | – | – | 65 | 22 | 69
32 | Cc1ccc(CC(=O)N[C@H]2CCOC2=O)cc1 [C19] | 64 | 81 | 87 | – | – | –
33 | O=C(Cc1ccc(I)cc1)N[C@H]1CCOC1=O [C10] | −79 | 58 | 84 | – | – | –
34 | O=C(COc1ccc(OC(F)(F)F)cc1)N[C@H]1CCOC1=O [D15] | 4 | −80 | 61 | – | – | –
